Data published in ChEMBL document CHEMBL1649471, “Nonhuman primates are protected from smallpox virus or monkeypox virus challenges by the antiviral drug ST-246” (2009).
Calls of active or inactive are those of the source. No cut-off for these calls is given here.

Tests used:
Variola virus [1] = assay: (§1) Antiviral activity against 1X10'8 PFU Variola virus Harper infected in cynomolgus monkey assessed as alanine amino transferase level in animal at 300 mg/kg/day, po administered immediately after infection followed by 5 ml/kg of 30% suspension of hydrated homogenized monkey biscuit measured 11 days post infection; format: functional
Monkeypox virus [2] = assay: Antiviral activity against Monkeypox virus Zaire '79 infected in cynomolgus monkey assessed as log decrease in viral load at 300 mg/kg/day, po administered 24 hrs post infection followed by 5 ml/kg of monkey biscuit measured after 14 days; format: functional
Variola virus [3] = assay: (§2) Antiviral activity against 1X10'8 PFU Variola virus Harper infected in cynomolgus monkey assessed as percent hematocrit level in animal at 300 mg/kg/day, po administered 1 day post infection followed by 5 ml/kg of 30% suspension of hydrated homogenized monkey biscuit measured 11 days post infection; format: functional
Variola virus [4] = assay: Antiviral activity against 1X10'8 PFU Variola virus Harper infected in cynomolgus monkey assessed as percent hematocrit level in animal at 300 mg/kg/day, po administered 3 days post infection followed by 5 ml/kg of 30% suspension of hydrated homogenized monkey biscuit measured 9 days post infection; format: functional
Variola virus [5] = assay: (§3) Antiviral activity against 1X10'8 PFU Variola virus Harper infected in cynomolgus monkey assessed as survival of animal at 300 mg/kg/day, po administered 1 day post infection followed by 5 ml/kg of 30% suspension of hydrated homogenized monkey biscuit measured up to 28 days; format: functional, organism-based
Variola virus [6] = assay: Antiviral activity against 1X10'8 PFU Variola virus Harper infected in cynomolgus monkey assessed as platelet count in animal at 300 mg/kg/day, po administered 3 days post infection followed by 5 ml/kg of 30% suspension of hydrated homogenized monkey biscuit measured 9 days post infection; format: functional
Variola virus [7] = assay: as §2, with “mean corpuscular hemoglobin concentration” for “percent hematocrit level”; format: functional
Variola virus [8] = assay: Antiviral activity against 1X10'8 PFU Variola virus Harper infected in cynomolgus monkey assessed as decrease in blood viral load at 300 mg/kg/day, po administered immediately post infection followed by 5 ml/kg of 30% suspension of hydrated homogenized monkey biscuit measured up to 28 days; format: functional, organism-based
Variola virus [9] = assay: (§4) Antiviral activity against 1X10'8 PFU Variola virus Harper infected in cynomolgus monkey assessed as blood urea nitrogen level in animal at 300 mg/kg/day, po administered 1 day post infection followed by 5 ml/kg of 30% suspension of hydrated homogenized monkey biscuit measured 11 days post infection; format: functional
Variola virus [10] = assay: as §2, with “mean corpuscular hemoglobin concentration” for “percent hematocrit level”, “9” for “11”; format: functional
Variola virus [11] = assay: as §4, with “immediately after” for “1 day post”; format: functional
Variola virus [12] = assay: as §1, with “aspartate” for “alanine”; format: functional
Monkeypox virus [13] = assay: Antiviral activity against Monkeypox virus Zaire '79 infected in cynomolgus monkey assessed as inhibition of virus induced skin lesions at 300 mg/kg/day, po administered 72 hrs post infection measured after 14 days; format: functional, organism-based
Monkeypox virus [14] = assay: Antiviral activity against Monkeypox virus Zaire '79 infected in cynomolgus monkey assessed as log decrease in viral load at 300 mg/kg/day, po administered 72 hrs post infection measured after 14 days; format: functional
Variola virus [15] = assay: (§5) Antiviral activity against 1X10'8 PFU Variola virus Harper infected in cynomolgus monkey assessed as creatinine level in animal at 300 mg/kg/day, po administered 1 day post infection followed by 5 ml/kg of 30% suspension of hydrated homogenized monkey biscuit measured 11 days post infection; format: functional
Variola virus [16] = assay: as §5, with “aspartate amino transferase” for “creatinine”; format: functional
Variola virus [17] = assay: Antiviral activity against 1X10'8 PFU Variola virus Harper infected in cynomolgus monkey assessed as albumin level in animal at 300 mg/kg/day, po administered 1 day post infection followed by 5 ml/kg of 30% suspension of hydrated homogenized monkey biscuit measured 11 days post infection; format: functional
Variola virus [18] = assay: (§6) Antiviral activity against 1X10'8 PFU Variola virus Harper infected in cynomolgus monkey assessed as temperature change in animal at 300 mg/kg/day, po administered immediately after infection followed by 5 ml/kg of 30% suspension of hydrated homogenized monkey biscuit measured 11 days post infection; format: functional
Monkeypox virus [19] = assay: Antiviral activity against Monkeypox virus Zaire '79 infected in cynomolgus monkey assessed as survival of monkey at 300 mg/kg/day, po administered 24 hrs post infection followed by 5 ml/kg of 30% suspension of hydrated homogenized monkey biscuit measured after 14 days; format: functional, organism-based
Variola virus [20] = assay: as §3, with “inhibition” for “survival”, “virus-mediated lesion formation” for “animal”, “immediately” for “1 day”, “between day 5” for “up”, “8” for “28 days”; format: functional, organism-based
Variola virus [21] = assay: as §2, with “immediately after” for “1 day post”; format: functional
Cynomolgus monkey [22] = assay: Immunostimulatory activity in cynomolgus monkey infected with 1X10'8 PFU Variola virus Harper assessed as level of IgG at 300 mg/kg/day, po followed by 5 ml/kg of 30% suspension of hydrated homogenized monkey biscuit measured on day 7 by ELISA; format: functional, organism-based; details: Macaca fascicularis
Variola virus [23] = assay: Antiviral activity against 1X10'8 PFU Variola virus Harper infected in cynomolgus monkey assessed as blood urea nitrogen level in animal at 300 mg/kg/day, po administered 3 days post infection followed by 5 ml/kg of 30% suspension of hydrated homogenized monkey biscuit measured 9 days post infection; format: functional
Variola virus [24] = assay: as §6, with “mean corpuscular hemoglobin concentration” for “temperature change”; format: functional
Variola virus [25] = assay: Antiviral activity against 1X10'8 PFU Variola virus Harper infected in cynomolgus monkey assessed as temperature change in animal at 300 mg/kg/day, po administered 1 day post infection followed by 5 ml/kg of 30% suspension of hydrated homogenized monkey biscuit measured 11 days post infection; format: functional
Variola virus [26] = assay: as §1, with “total protein” for “alanine amino transferase”; format: functional
Variola virus [27] = assay: as §6, with “white blood cell count” for “temperature change”; format: functional
Variola virus [28] = assay: Antiviral activity against 1X10'8 PFU Variola virus Harper infected in cynomolgus monkey assessed as albumin level in animal at 300 mg/kg/day, po administered immediately after infection followed by 5 ml/kg of 30% suspension of hydrated homogenized monkey biscuit measured 11 days post infection; format: functional
Variola virus [29] = assay: (§7) Antiviral activity against 1X10'8 PFU Variola virus Harper infected in cynomolgus monkey assessed as alanine phosphatase level in animal at 300 mg/kg/day, po administered 1 day post infection followed by 5 ml/kg of 30% suspension of hydrated homogenized monkey biscuit measured 11 days post infection; format: functional
Variola virus [30] = assay: as §3, with “inhibition” for “survival”, “virus-mediated lesion formation” for “animal”, “between day 5” for “up”, “8” for “28 days”; format: functional, organism-based
Variola virus [31] = assay: Antiviral activity against 1X10'8 PFU Variola virus Harper infected in cynomolgus monkey assessed as white blood cell count in animal at 300 mg/kg/day, po administered 3 days post infection followed by 5 ml/kg of 30% suspension of hydrated homogenized monkey biscuit measured 9 days post infection; format: functional
Variola virus [32] = assay: Antiviral activity against 1X10'8 PFU Variola virus Harper infected in cynomolgus monkey assessed as total protein level in animal at 300 mg/kg/day, po administered 1 day post infection followed by 5 ml/kg of 30% suspension of hydrated homogenized monkey biscuit measured 11 days post infection; format: functional
Variola virus [33] = assay: Antiviral activity against 1X10'8 PFU Variola virus Harper infected in cynomolgus monkey assessed as survival of animal at 300 mg/kg/day, po administered immediately post infection followed by 5 ml/kg of 30% suspension of hydrated homogenized monkey biscuit measured up to 28 days; format: functional, organism-based
Variola virus [34] = assay: Antiviral activity against 1X10'8 PFU Variola virus Harper infected in cynomolgus monkey assessed as platelet count in animal at 300 mg/kg/day, po administered 1 day post infection followed by 5 ml/kg of 30% suspension of hydrated homogenized monkey biscuit measured 9 days post infection; format: functional
Variola virus [35] = assay: Antiviral activity against 1X10'8 PFU Variola virus Harper infected in cynomolgus monkey assessed as log decrease in blood viral load at 300 mg/kg/day, po administered 1 day post infection followed by 5 ml/kg of 30% suspension of hydrated homogenized monkey biscuit measured between day 5 to 8; format: functional
Monkeypox virus [36] = assay: Antiviral activity against Monkeypox virus Zaire '79 infected in cynomolgus monkey assessed as inhibition of virus induced skin lesions at 300 mg/kg/day, po administered 24 hrs post infection measured after 14 days; format: functional, organism-based
Variola virus [37] = assay: as §7, with “amino transferase” for “phosphatase”; format: functional
Monkeypox virus [38] = assay: Antiviral activity against Monkeypox virus Zaire '79 infected in cynomolgus monkey assessed as survival of monkey at 300 mg/kg/day, po administered 72 hrs post infection followed by 5 ml/kg of 30% suspension of hydrated homogenized monkey biscuit measured after 14 days; format: functional, organism-based
Variola virus [39] = assay: Antiviral activity against 1X10'8 PFU Variola virus Harper infected in cynomolgus monkey assessed as platelet count in animal at 300 mg/kg/day, po administered 1 day post infection followed by 5 ml/kg of 30% suspension of hydrated homogenized monkey biscuit measured 11 days post infection; format: functional
Variola virus [40] = assay: as §1, with “[…]” for “amino transferase”; format: functional
Variola virus [41] = assay: Antiviral activity against 1X10'8 PFU Variola virus Harper infected in cynomolgus monkey assessed as creatinine level in animal at 300 mg/kg/day, po administered 1 day post infection followed by 5 ml/kg of 30% suspension of hydrated homogenized monkey biscuit measured 9 days post infection; format: functional
Variola virus [42] = assay: Antiviral activity against 1X10'8 PFU Variola virus Harper infected in cynomolgus monkey assessed as log decrease in blood viral load at 300 mg/kg/day, po administered immediately post infection followed by 5 ml/kg of 30% suspension of hydrated homogenized monkey biscuit measured between day 5 to 8; format: functional
Variola virus [43] = assay: Antiviral activity against 1X10'8 PFU Variola virus Harper infected in cynomolgus monkey assessed as white blood cell count in animal at 300 mg/kg/day, po administered 1 day post infection followed by 5 ml/kg of 30% suspension of hydrated homogenized monkey biscuit measured 11 days post infection; format: functional
Variola virus [44] = assay: Antiviral activity against 1X10'8 PFU Variola virus Harper infected in cynomolgus monkey assessed as platelet count in animal at 300 mg/kg/day, po administered immediately after infection followed by 5 ml/kg of 30% suspension of hydrated homogenized monkey biscuit measured 11 days post infection; format: functional
Variola virus [45] = assay: Antiviral activity against 1X10'8 PFU Variola virus Harper infected in cynomolgus monkey assessed as creatinine level in animal at 300 mg/kg/day, po administered immediately after infection followed by 5 ml/kg of 30% suspension of hydrated homogenized monkey biscuit measured 11 days post infection; format: functional
Variola virus [46] = assay: Antiviral activity against 1X10'8 PFU Variola virus Harper infected in cynomolgus monkey assessed as decrease in blood viral load at 300 mg/kg/day, po administered 1 day post infection followed by 5 ml/kg of 30% suspension of hydrated homogenized monkey biscuit measured up to 28 days; format: functional, organism-based
Cynomolgus monkey [47] = assay: Immunostimulatory activity in cynomolgus monkey infected with 1X10'8 PFU Variola virus Harper assessed as level of IgM at 300 mg/kg/day, po followed by 5 ml/kg of 30% suspension of hydrated homogenized monkey biscuit measured on day 7 by ELISA; format: functional, organism-based; details: Macaca fascicularis

O=C(NN1C(=O)[C@@H]2[C@@H]3C=C[C@@H]([C@H]4C[C@@H]34)[C@@H]2C1=O)c1ccc(C(F)(F)F)cc1 [TECOVIRIMAT]
Activity (Variola virus [1]): 49.7 U/L | FC (Monkeypox virus [2]): 5 | Activity (Variola virus [3]): 49.6% | Activity (Variola virus [4]): 35.9% | Activity (Variola virus [5]): Active | Activity (Variola virus [6]): 406 ×10³ /uL | Activity (Variola virus [7]): 31.1 g/dL | Activity (Variola virus [8]): Active | Activity (Variola virus [9]): 18.7 mg/dL | Activity (Variola virus [10]): 30.9 g/dL | Activity (Variola virus [11]): 19 mg/dL | Activity (Variola virus [12]): 55 U/L | Activity (Monkeypox virus [13]): Active | FC (Monkeypox virus [14]): 5 | Activity (Variola virus [15]): 0.7 mg/dL | Activity (Variola virus [16]): 58 U/L | Activity (Variola virus [17]): 2.9 g/dL | Activity (Variola virus [18]): 38 °C | Activity (Monkeypox virus [19]): Active | inhibition (Variola virus [20]): Active | Activity (Variola virus [21]): 44.3% | Activity (Cynomolgus monkey [22]): Active | Activity (Variola virus [23]): 10.7 mg/dL | Activity (Variola virus [24]): 31.7 g/dL | Activity (Variola virus [25]): 37.3 °C | Activity (Variola virus [26]): 6.37 g/dL | Activity (Variola virus [27]): 8.2 ×10³ /uL | Activity (Variola virus [28]): 2.47 g/dL | Activity (Variola virus [29]): 141 U/L | inhibition (Variola virus [30]): Active | Activity (Variola virus [31]): 12.3 ×10³ /uL | Activity (Variola virus [32]): 6.43 g/dL | Activity (Variola virus [33]): Active | Activity (Variola virus [34]): 350 ×10³ /uL | FC (Variola virus [35]): 3 | Activity (Monkeypox virus [36]): Active | Activity (Variola virus [37]): 60.3 U/L | Activity (Monkeypox virus [38]): Active | Activity (Variola virus [39]): 341 ×10³ /uL | Activity (Variola virus [40]): 277 U/L | Activity (Variola virus [41]): 0.9 mg/dL | FC (Variola virus [42]): 3 | Activity (Variola virus [43]): 7.5 ×10³ /uL | Activity (Variola virus [44]): 329 ×10³ /uL | Activity (Variola virus [45]): 0.73 mg/dL | Activity (Variola virus [46]): Active | Activity (Cynomolgus monkey [47]): Active
